Laboratory results from patent US20210283087A1, “METHOD FOR TREATING AND RELIEVING MYOPIA” (China Medical University, priority 2014, published 2021).

Assays:
Syrian hamster = assay: Refractive power of hamsters without MFD after LPS or PGN; type: in vivo; details: for Refractive power, BL: left eye before treatment / Refractive power, BR: right eye before treatment: LPS or PGN group, baseline; for Refractive power, FL: left eye after treatment / Refractive power, FR: right eye after treatment / Refractive error FL-BL / Refractive error FR-BR: LPS or PGN; for Refractive power, FL: left eye after treatment / Refractive power, FR: right eye after treatment: 21 days; for Refractive error FL-BL: left eye; for Refractive error FR-BR: right eye
Protocol: (§1) The RE (i.e., spherical-component RE, which is defined as the mean RE in horizontal and vertical meridians) was measured using a hand-held streak retinoscope. Animals were anesthetized with 10% ether in O2. Ocular refraction was evaluated at the start and end of the experiment. At the end of the study, animals were sacrificed through CO2 asphyxiation according to the guidelines of the Public Health Service, Office of Laboratory Animal Welfare, National Institutes of Health, and American Association of Veterinary Medicine. Eyes were enucleated using a razor blade on an ice plate under a surgical microscope (Topcon, Tokyo, Japan) by cutting perpendicularly to the anterior-posterior axis approximately 1 mm posterior to the ora serrata. The iris and ciliary body of the anterior segment of the eye were separated. Posterior sclera was excised using a 7-mm-diameter trephine. The axial lengths were determined through A-scan ultrasonography (PacScan 300 Plus, NY, USA). The average of 10 unique measurements was used.
To further test this possibility, LPS and PGN were applied to the eyes of hamsters without MFD.

[1] = tested on: monocular form deprivation (MFD) Syrian hamster; assay: Refractive power in monocular form deprivation (MFD) hamster model, streak retinoscope; type: in vivo, golden Syrian hamsters; details: LPS or 500 ng/mL PGN every second day for 21 days
[2] = tested on: monocular form deprivation (MFD) Syrian hamster; assay: as above; type: in vivo, golden Syrian hamsters; details: for Myopia in the non-MFD eye: LPS and PGN but not PBS treatment; for Refractive power, BL: left eye before MFD / Refractive power, BR: right eye before MFD: LPS or PGN group, baseline; for Refractive error FR-BR / Refractive error FL-BL: LPS or PGN; for Refractive error FR-BR: MFD right eye; for Refractive error FL-BL: non-MFD left eye
Protocol: In this study, a total of 160 golden Syrian hamsters aged 3 weeks, weighing 80 to 90 g, and 20 albino guinea pigs, aged 2 to 3 weeks, were used for experiments. All animals were kept in a 12-hour light/dark cycle. All procedures were approved by the Institutional Animal Care and Use Committee of China Medical University and were conducted in accordance with the guidelines of the Use of Animals in Ophthalmic and Vision Research. Hamsters were raised with a right eyelid fusion for 21 days. Myopia was induced in the guinea pigs by covering the right eye with a cloth attached to the skin at a distance of at least 1 cm from the eye. MFD was induced in the right eye (with the left eye serving as a control) of animals randomly assigned to treatment or control groups (n=10 animals each) receiving daily applications of drug or phosphate-buffered saline (PBS), respectively, to both eyes.
as §1

Sclera fibroblast = assay: Gene expression by real-time PCR in LPS-treated primary scleral fibroblasts; type: cell-based, hamster; details: sclera fibroblast; 100 ng/ml LPS for 4 hours
Protocol: (§2) R28 rat retinal epithelial cells were provided by Gail Seigel at the Ross Eye Institute (SUNY, Buffalo, N.Y., USA). The cells were cultured in Dulbecco's modified Eagle's medium (DMEM) with 10% fetal bovine serum (FBS) at 37° C. and 5% CO2, with medium replacement every 3 days to 4 days. Sclera were placed in a 60-mm culture dish in DMEM supplemented with 10% FBS to isolate primary scleral fibroblasts; those from fewer than three passages were used in experiments. […] Cell lysates were collected for quantitative (q)PCR to determine gene expression levels.
(§3) Total RNA was extracted using the RNeasy MiniKit (Qiagen, Valencia, Calif., USA), and 5 μg of RNA was reverse-transcribed to cDNA by using the Superscript First Strand Synthesis system (Invitrogen, Carlsbad, Calif., USA). Primers and probes used for qPCR were selected from the Universal Probes Library (Roche, West Sussex, UK). Transcript levels were normalized to those of glyceraldehyde 3-phosphate dehydrogenase in each sample.

Retinal cell (R28) = assay: Gene expression by real-time PCR in LPS-treated R28 retinal cells; type: cell-based, rat; details: R28; 100 ng/ml LPS for 4 hours
Protocol: as §2, §3

[3] = tested on: sclera and retina of hamster eyes; assay: Immunohistochemistry of hamster eyes (sclera, retina); type: in vivo; details: for c-Fos and NF-κB expression / MMP2 and TGF-β expression / TGF-β and MMP2 expression: LPS or PGN; for IL-10 and TNF-α levels: LPS or PGN treatment; for MMP2 and TGF-β expression: MFD hamsters; for TGF-β and MMP2 expression: hamsters without MFD
Protocol: Antigen retrieval was performed by boiling the slides in citrate buffer (pH 6.0); the sections were then stained with antibodies against IL-6, TNF-α, TGF-β, MMP2, c-Fos, NF-κB, and CHRM1 and 3. The EnVision System peroxidase kit (DAKO, Carpentaria, Calif., USA) was used to visualize immunoreactivity.

[4] = tested on: LEWIS rats, right eye induced myopia by FDM; assay: Refractive error and axial length in FDM myopia LEWIS rats (diclofenac); type: in vivo
Protocol: Four weeks LEWIS rats were used in this example. […] The refractive error and axial length of right eye were measured by refractometer within three weeks and recorded in Table 14.

[5] = tested on: MFD-induced myopia in hamster; assay: Effect of resveratrol on MFD-induced myopia in hamster (refractometer); type: in vivo; details: for Diopter, left eye (mean ± SD) / Diopter, right myopic eye (mean ± SD): 21 days
Protocol: 0.1141 g resveratrol (purchased from Sigma Aldrich Co.) powder was dissolved in 6 ml of ethanol to obtain resveratrol liquid. 1.46 g β-cyclodextrin (purchased from Sigma Aldrich Co.) was dissolved in 2 ml of sterile water to obtain a β-cyclodextrin solution (as a co-solvent); resveratrol liquid and β cyclodextrin were mixed in mole number of 1:2 by slowly adding dropwise β cyclodextrin solution into resveratrol liquid to form a mixture. The mixture was frozen drained, and then 5 ml artificial tears were added (purchased from Alcon company) to be re-dissolved to obtain 100 mM resveratrol solution. Resveratrol solution can be diluted by fetal bovine serum medium or artificial tears for various embodiments.
The refractive powers of hamsters were measured before experiment by refractometer (in China Medical University Hospital Department of Ophthalmology). The hamsters were administered artificial tears (referred to as control group) or various concentrations (3 mM, 30 mM, 100 mM) of resveratrol (experimental group) for five hamsters each group. The right eyes of the hamsters of each group were stitched; after 21 days, the stitches were all removed and then the refractive powers of each hamster were measured.

[6] = tested on: sclera and retina of hamster eyes; assay: Immunohistochemical analysis of COL1, TGF-β, TNF-α in resveratrol-treated hamster eyes; type: in vivo; details: 100 mM resveratrol
Protocol: […] Antigen retrieval was performed by boiling the slides in citrate buffer (pH 6.0); the sections were then stained with antibodies against IL-6, TNF-α, TGF-β, MMP2, c-Fos, NF-κB, and CHRM1 and 3. The EnVision System peroxidase kit (DAKO, Carpentaria, Calif., USA) was used to visualize immunoreactivity.

[7] = tested on: Human retinal pigment epithelium; assay: Western blot of phosphorylated Akt and ERK after LPS in human retinal pigment epithelium; type: cell-based; details: 50 μM resveratrol pretreatment, then 500 ng/ml LPS
Protocol: Human retinal pigment epithelium was administrated 500 ng/ml LPS for 30 minutes to observe the expression of Akt and ERK.

[8] = tested on: monocyte chemoattractant protein-1 (MCP-1); assay: LPS-induced MCP-1 expression in human retinal pigment epithelial cells; type: cell-based; details: 50 μM resveratrol and 1 μg/ml LPS for 24 hours
Protocol: Human retinal pigment epithelial cells were as model cells under LPS stimulation for 24 hours to induce inflammation and monocyte chemoattractant protein-1 (MCP-1), and then resveratrol was administered to detect the effect of suppressing inflammatory response.

MMP2 = assay: Gelatin zymography of MMP2 activity in LPS-activated scleral fibroblasts and ARPE-19 cells; type: cell-based; details: LPS + 100 μM atropine or LPS + 50 μM diacerein; 48 hours
Protocol: To facilitate subsequent analysis, 1×10^6 cells were seeded in 24-well plates for at least 12 hours. […] To measure the MMP-2/MMP-9 activities, samples were separated using 8% SDS-PAGE containing 0.1% gelatin.

[9] = 3 × diclofenac (3 mg/ml solution), right eye, three weeks, mean ± standard error

Compound: lipopolysaccharide [LPS]
- Refractive power, BL: left eye before treatment (Syrian hamster): 12.28 ± 0.97 D
- Refractive power, BR: right eye before treatment (Syrian hamster): 12.25 ± 0.57 D
- Refractive power, FL: left eye after treatment (Syrian hamster): 8.33±0.96 D
- Refractive power, FR: right eye after treatment (Syrian hamster): 8.56±0.42 D
- Refractive error FL-BL (Syrian hamster): −3.95 ± 0.97 D
- Refractive error FR-BR (Syrian hamster): −3.69 ± 0.57 D
- Refractive power, FL: left eye after MFD [1]: 7.79±0.88 D
- Refractive power, FR: right eye after MFD (occluded eye) [1]: 6.44±0.18 D
- Myopia in the non-MFD eye [2]: induced
- Refractive power, BL: left eye before MFD [2]: 11.92 ± 0.56 D
- Refractive power, BR: right eye before MFD [2]: 12.30 ± 0.48 D
- Refractive error FR-BR [2]: −5.9 ± 0.54 D
- Refractive error FL-BL [2]: −4.13 ± 0.9 D
- Chrm 1 gene expression level (Sclera fibroblast): 1.49 ± 0.18
- Chrm 2 gene expression level (Sclera fibroblast): 1.48 ± 0.17
- Chrm 3 gene expression level (Sclera fibroblast): 1.58 ± 0.15
- Chrm 4 gene expression level (Sclera fibroblast): 1.07 ± 0.23
- Chrm5 gene expression level (Sclera fibroblast): 0.93 ± 0.15
- Fos gene expression level (Sclera fibroblast): 1.00 ± 0.11
- IL1b gene expression level (Sclera fibroblast): 2.84 ± 0.21
- IL10 gene expression level (Sclera fibroblast): 0.56 ± 0.19
- IL-6 gene expression level (Sclera fibroblast): 3.02 ± 0.16
- MMP2 gene expression level (Sclera fibroblast): 1.79 ± 0.17
- NFkB gene expression level (Sclera fibroblast): 4.50 ± 0.27
- Tgfb1 gene expression level (Sclera fibroblast): 2.15 ± 0.23
- Tnfa gene expression level (Sclera fibroblast): 1.49 ± 0.15
- Chrm 1 gene expression level (Retinal cell (R28)): 1.39 ± 0.13
- Chrm 2 gene expression level (Retinal cell (R28)): 0.45 ± 0.23
- Chrm 3 gene expression level (Retinal cell (R28)): 1.27 ± 0.2
- Chrm 4 gene expression level (Retinal cell (R28)): 0.94 ± 0.15
- Chrm5 gene expression level (Retinal cell (R28)): 0.75 ± 0.21
- Fos gene expression level (Retinal cell (R28)): 1.39 ± 0.11
- IL1b gene expression level (Retinal cell (R28)): 4.3 ± 0.25
- IL10 gene expression level (Retinal cell (R28)): 0.56 ± 0.19
- IL-6 gene expression level (Retinal cell (R28)): 2.63 ± 0.15
- MMP2 gene expression level (Retinal cell (R28)): 1.32 ± 0.13
- NFkB gene expression level (Retinal cell (R28)): 1.13 ± 0.11
- Tgfb1 gene expression level (Retinal cell (R28)): 1.18 ± 0.12
- Tnfa gene expression level (Retinal cell (R28)): 1.56 ± 0.17
- c-Fos and NF-κB expression [3]: stimulated
- IL-10 and TNF-α levels [3]: increased
- MMP2 and TGF-β expression [3]: upregulation
- TGF-β and MMP2 expression [3]: upregulation

Compound: O=C(O)Cc1ccccc1Nc1c(Cl)cccc1Cl [diclofenac]
- Inhibitory effect on myopia, comparison of concentrations ([4]; 3 mg/ml vs 6 mg/ml): better in the concentration of 3 mg/ml than in 6 mg/ml
- Δ Axial length [4, 9]: 1.04 ± 0.39 mm
- Δ Refractive error [4, 9]: 5.36 ± 4.05 D
- Δ Axial length ([4]; 6 × diclofenac (6 mg/ml solution), right eye, three weeks, mean ± standard error): 1.24 ± 0.55 mm
- Effect on myopia process ([4]; diclofenac solution 3 mg/ml and 6 mg/ml): significant inhibitory effect

Compound: Oc1ccc(C=Cc2cc(O)cc(O)c2)cc1 [resveratrol]
- Diopter, left eye (mean ± SD) ([5]; 3 mM resveratrol): −0.17 ± 0.24 Diopter
- Diopter, right myopic eye (mean ± SD) ([5]; 3 mM resveratrol): −2.42 ± 1.30 Diopter
- Diopter, left eye (mean ± SD) ([5]; 30 mM resveratrol): −0.63 ± 0.41 Diopter
- Diopter, right myopic eye (mean ± SD) ([5]; 30 mM resveratrol): −2.46 ± 0.65 Diopter
- Diopter, left eye (mean ± SD) ([5]; 100 mM resveratrol): −0.25 ± 1.53 Diopter
- Diopter, right myopic eye (mean ± SD) ([5]; 100 mM resveratrol): −1.13 ± 1.47 Diopter
- Inhibition of myopia, comparison of concentrations ([5]; 100 mM vs 3 mM and 30 mM): most effective
- TNF-α expression in the retina [6]: follows the same trend as TGF-β
- Collagen I protein expression in the sclera ([6]; stitched right eye): recovered
- TGF-β expression in the retina ([6]; stitched right eye): reduction effect
- Expression of phosphorylated Akt and ERK [7]: decrease
- Expression of MCP-1 [8]: decreasing

Compound: peptidoglycan [PGN]
- Refractive power, BL: left eye before treatment (Syrian hamster): 12.22 ± 0.35 D
- Refractive power, BR: right eye before treatment (Syrian hamster): 12.17 ± 1.04 D
- Refractive power, FL: left eye after treatment (Syrian hamster): 8.67±0.63 D
- Refractive power, FR: right eye after treatment (Syrian hamster): 9.14±1.21 D
- Refractive error FL-BL (Syrian hamster): −3.55 ± 0.35 D
- Refractive error FR-BR (Syrian hamster): −3.03 ± 1.04 D
- Refractive power, FL: left eye after MFD [1]: 6.78±0.63 D
- Refractive power, FR: right eye after MFD (occluded eye) [1]: 6.47±0.39 D
- Myopia in the non-MFD eye [2]: induced
- Refractive power, BL: left eye before MFD [2]: 11.73 ± 0.25 D
- Refractive power, BR: right eye before MFD [2]: 11.48 ± 0.49 D
- Refractive error FR-BR [2]: −4.90 ± 0.83 D
- Refractive error FL-BL [2]: −5.03 ± 0.43 D
- c-Fos and NF-κB expression [3]: stimulated
- IL-10 and TNF-α levels [3]: increased
- MMP2 and TGF-β expression [3]: upregulation
- TGF-β and MMP2 expression [3]: upregulation

Compound: CC(=O)Oc1cccc2c1C(=O)c1c(OC(C)=O)cc(C(=O)O)cc1C2=O [diacerein]
- MMP2 activities in cells activated by LPS (MMP2): decreased
